Data on one molecule can be found in paper PMC10376691, “Inhibition of Acetylcholinesterase and Amyloid-β Aggregation by Piceatannol and Analogs: Assessing In Vitro and In Vivo Impact on a Murine Model of Scopolamine-Induced Memory Impairment” (Antioxidants, 2023).

Assay [1] relates to SH-SY5Y cells. The assay is described as follows: Neurite outgrowth and cell viability, two-color fluorescence assay kit. The assay is classed as cell-based. To be noted: 10 μM, 3-day or 6-day treatment, orange-red fluorescence; vs control.
The target of assay [2] is T1, mouse AChE activity in the brain extracts (Mus musculus, UniProt P21836).
T1 construct: The protein content of the whole brain extracts from the mice was quantified using the BCA protein kit; from tissue; host or cells: whole brain extract of scopolamine-induced ICR mice
T1 sequence (P21836 32-614): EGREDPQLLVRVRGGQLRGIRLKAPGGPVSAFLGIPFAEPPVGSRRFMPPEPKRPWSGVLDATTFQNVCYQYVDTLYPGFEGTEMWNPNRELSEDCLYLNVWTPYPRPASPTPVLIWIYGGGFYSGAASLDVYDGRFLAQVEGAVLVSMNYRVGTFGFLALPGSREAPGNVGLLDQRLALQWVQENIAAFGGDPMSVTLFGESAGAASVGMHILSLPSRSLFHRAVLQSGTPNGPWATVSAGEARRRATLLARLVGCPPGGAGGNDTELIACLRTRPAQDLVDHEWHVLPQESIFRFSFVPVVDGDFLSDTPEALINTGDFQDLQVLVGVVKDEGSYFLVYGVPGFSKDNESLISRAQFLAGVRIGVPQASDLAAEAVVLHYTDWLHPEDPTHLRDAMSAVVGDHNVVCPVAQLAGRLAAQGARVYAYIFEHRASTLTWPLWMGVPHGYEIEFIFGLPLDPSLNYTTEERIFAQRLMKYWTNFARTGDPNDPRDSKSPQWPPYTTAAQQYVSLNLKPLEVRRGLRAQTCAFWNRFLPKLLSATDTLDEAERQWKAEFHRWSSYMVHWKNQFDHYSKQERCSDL
The assay is described as follows: AChE activity in brain extracts of scopolamine-induced ICR mice. The assay is classed as in vivo. To be noted: PIC 50 mg/kg, donepezil 5 mg/kg oral; vs control p < 0.05.
Description: The AChE activities in the mouse brain tissue extract were assayed following the method in Section 2.3, with some modifications. The protein content of the whole brain extracts from the mice was quantified using the BCA protein kit, with bovine serum albumin as the standard protein.

Entries after “also recorded” stand apart in the source; their conditions may differ.

On to `Oc1cc(O)cc(C=Cc2ccc(O)c(O)c2)c1` [PIC, 3,5,3′,4′-tetrahydroxystilbene], for which the “stimulation of neurite outgrowths” value in assay [1] was “not PIC nor GNT; also recorded: not PIC and GNT”. For the same molecule, the “AChE activity in the brain extracts” value in assay [2] is reported as “reductions in AChE activities”.
